Results: patent publication US9023789B2, “Amylin analogs and pharmaceutical compositions thereof” (Novo Nordisk A/S, priority 2012, dated 2015)
Read-outs that look alike come from different tables or passages of the source. Numbered stars: 1 amine (or outer) side, 2 acyl side, 3 side chain; on linkers, the order of the positions; unused ones are H or OH. Bridge positions count the residues as written; N and C are the ends. Side chains are listed from the residue outwards. Peptide text beside a SMILES is read from it. * marks the point of attachment. C20 diacid = O=C(O)CCCCCCCCCCCCCCCCCCC(=O)*; γGlu = O=C(O)[C@H](CCC(=O)[*:2])N[*:1]

Columns and labels:
[1] = ASSAY (III) ThT fibrillation assay for physical stability; assay type: physicochemical
Procedure, shortened: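 Formulations with 1 μM ThT, pH adjusted as required, incubated at 37 °C with 960 rpm orbital shaking; fluorescence (ex 444/em 485 nm) read every 20 min. Fibrillation reported as mean ThT fluorescence ± SD of 4–8 replicates at time points; polypeptide concentration measured by reverse-phase HPLC before and after, post-centrifugation.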

[2] = target: T1, human calcitonin receptor (Homo sapiens, UniProt P30988); assay: ASSAY (VII) binding to the human calcitonin receptor (SPA, 125I-Calcitonin);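 note: cell membranes (35 ng/µL) combined with SPA beads in 40 µL of pH 7.4 Hepes buffer, 384-well format, signal counted on a TopCounter instrument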
T1 construct: expressed in transfected cells
T1 sequence (P30988 25-474): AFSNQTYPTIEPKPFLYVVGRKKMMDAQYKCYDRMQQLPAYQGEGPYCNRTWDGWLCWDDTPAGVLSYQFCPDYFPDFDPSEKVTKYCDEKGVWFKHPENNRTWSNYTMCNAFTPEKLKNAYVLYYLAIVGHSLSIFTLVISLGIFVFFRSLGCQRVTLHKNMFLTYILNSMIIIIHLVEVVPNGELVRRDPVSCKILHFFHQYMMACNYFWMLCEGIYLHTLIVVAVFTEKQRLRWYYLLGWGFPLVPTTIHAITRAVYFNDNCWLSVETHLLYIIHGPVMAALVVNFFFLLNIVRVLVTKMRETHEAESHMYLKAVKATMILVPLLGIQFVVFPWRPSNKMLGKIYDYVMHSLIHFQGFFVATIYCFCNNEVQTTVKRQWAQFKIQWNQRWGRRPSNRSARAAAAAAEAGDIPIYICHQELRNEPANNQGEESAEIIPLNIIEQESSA

SMILES | ThT pH 4.0 lag time (h) [1] [h] | IC50 ([2]; read-out: hCTR bind IC50) [nM] | IC50 [2] [nM]
CC[C@H](C)[C@H](NC(=O)[C@H](C)NC(=O)CNC(=O)[C@H](Cc1ccccc1)NC(=O)[C@H](CC(N)=O)NC(=O)[C@@H]1CCCN1C(=O)[C@H](CO)NC(=O)[C@H](CO)NC(=O)[C@H](Cc1c[nH]cn1)NC(=O)[C@H](CCCNC(=N)N)NC(=O)[C@H](CC(C)C)NC(=O)[C@H](Cc1ccccc1)NC(=O)[C@H](C)NC(=O)[C@H](C)NC(=O)[C@H](CC(C)C)NC(=O)[C@H](CCCNC(=N)N)NC(=O)[C@H](CCC(N)=O)NC(=O)[C@@H](NC(=O)[C@H](C)NC(=O)[C@@H]1CSSC[C@H](NC(=O)[C@H](CCCNC(=N)N)NC(=O)CNC(=O)CC[C@H](NC(=O)CCCCCCCCCCCCCCCCCCC(=O)O)C(=O)O)C(=O)N[C@@H](CC(N)=O)C(=O)N[C@@H]([C@@H](C)O)C(=O)N[C@@H](C)C(=O)N[C@@H]([C@@H](C)O)C(=O)N1)[C@@H](C)O)C(=O)N1CCC[C@H]1C(=O)N[C@@H](CO)C(=O)N[C@@H](CO)C(=O)N[C@H](C(=O)N[C@@H](CC(N)=O)C(=O)N[C@H](C(=O)NCC(=O)N1CCC[C@H]1C(=O)N[C@@H](CC(N)=O)C(=O)N[C@H](C(=O)N[C@@H](Cc1ccc(O)cc1)C(N)=O)[C@@H](C)O)C(C)C)[C@@H](C)O [Example 103] ({C20 diacid-γGlu}-GRCNTATCATQRLAAFLRHSSPNFGAIPSSTNVGPNTY-NH2; disulfide 3-8) | 45 | – | 3
CC[C@H](C)[C@H](NC(=O)[C@H](C)NC(=O)CNC(=O)[C@H](Cc1ccccc1)NC(=O)[C@H](CC(N)=O)NC(=O)[C@@H]1CCCN1C(=O)[C@H](CO)NC(=O)[C@H](CO)NC(=O)[C@H](Cc1c[nH]cn1)NC(=O)[C@H](CCCNC(=N)N)NC(=O)[C@H](CC(C)C)NC(=O)[C@H](Cc1ccccc1)NC(=O)[C@H](CCC(=O)O)NC(=O)[C@H](C)NC(=O)[C@H](CC(C)C)NC(=O)[C@H](CCCNC(=N)N)NC(=O)[C@H](CCC(N)=O)NC(=O)[C@@H](NC(=O)[C@H](C)NC(=O)[C@@H]1CSSC[C@H](NC(=O)[C@H](CCCCN)NC(=O)CC[C@H](NC(=O)CCCCCCCCCCCCCCCCCCC(=O)O)C(=O)O)C(=O)N[C@@H](CC(N)=O)C(=O)N[C@@H]([C@@H](C)O)C(=O)N[C@@H](C)C(=O)N[C@@H]([C@@H](C)O)C(=O)N1)[C@@H](C)O)C(=O)N1CCC[C@H]1C(=O)N[C@@H](CO)C(=O)N[C@@H](CO)C(=O)N[C@H](C(=O)N[C@@H](CC(N)=O)C(=O)N[C@H](C(=O)NCC(=O)N[C@@H](Cc1c[nH]cn1)C(=O)N[C@@H](CC(N)=O)C(=O)N[C@H](C(=O)N[C@@H](Cc1ccc(O)cc1)C(N)=O)[C@@H](C)O)C(C)C)[C@@H](C)O [Example 17] ({C20 diacid-γGlu}-KCNTATCATQRLAEFLRHSSPNFGAIPSSTNVGHNTY-NH2; disulfide 2-7 (inferred)) | 45 | 10.9 | –
CC[C@H](C)[C@H](NC(=O)[C@H](C)NC(=O)CNC(=O)[C@H](Cc1ccccc1)NC(=O)[C@H](CC(N)=O)NC(=O)[C@@H]1CCCN1C(=O)[C@H](CO)NC(=O)[C@H](CO)NC(=O)[C@H](Cc1c[nH]cn1)NC(=O)[C@H](CCCNC(=N)N)NC(=O)[C@H](CC(C)C)NC(=O)[C@H](Cc1ccccc1)NC(=O)[C@H](CC(=O)O)NC(=O)[C@H](C)NC(=O)[C@H](CC(C)C)NC(=O)[C@H](CCCNC(=N)N)NC(=O)[C@H](CCC(N)=O)NC(=O)[C@@H](NC(=O)[C@H](C)NC(=O)[C@@H]1CSSC[C@H](NC(=O)[C@@H](N)CCCCNC(=O)CC[C@H](NC(=O)CCCCCCCCCCCCCCCCCCC(=O)O)C(=O)O)C(=O)N[C@@H](CC(N)=O)C(=O)N[C@@H]([C@@H](C)O)C(=O)N[C@@H](C)C(=O)N[C@@H]([C@@H](C)O)C(=O)N1)[C@@H](C)O)C(=O)N1CCC[C@H]1C(=O)N[C@@H](CO)C(=O)N[C@@H](CO)C(=O)N[C@H](C(=O)N[C@@H](CC(N)=O)C(=O)N[C@H](C(=O)NCC(=O)N1CCC[C@H]1C(=O)N[C@@H](CCCNC(=N)N)C(=O)N[C@H](C(=O)N[C@@H](Cc1ccc(O)cc1)C(N)=O)[C@@H](C)O)C(C)C)[C@@H](C)O [Example 129] (H-K([γGlu-C20 diacid])CNTATCATQRLADFLRHSSPNFGAIPSSTNVGPRTY-NH2; disulfide 2-7 (inferred); N-terminus assumed) | 45 | 42.5 | –
CC[C@H](C)[C@H](NC(=O)[C@H](C)NC(=O)CNC(=O)[C@H](Cc1ccccc1)NC(=O)[C@H](CC(N)=O)NC(=O)[C@@H]1CCCN1C(=O)[C@H](CO)NC(=O)[C@H](CO)NC(=O)[C@H](Cc1c[nH]cn1)NC(=O)[C@H](CCCNC(=N)N)NC(=O)[C@H](CC(C)C)NC(=O)[C@H](Cc1ccccc1)NC(=O)[C@H](CCC(=O)O)NC(=O)[C@H](C)NC(=O)[C@H](CC(C)C)NC(=O)[C@H](CCCNC(=N)N)NC(=O)[C@H](CCC(N)=O)NC(=O)[C@@H](NC(=O)[C@H](C)NC(=O)[C@@H]1CSSC[C@H](NC(=O)[C@H](CCCCN)NC(=O)CC[C@H](NC(=O)CCCCCCCCCCCCCCCCCCC(=O)O)C(=O)O)C(=O)N[C@@H](CC(N)=O)C(=O)N[C@@H]([C@@H](C)O)C(=O)N[C@@H](C)C(=O)N[C@@H]([C@@H](C)O)C(=O)N1)[C@@H](C)O)C(=O)N1CCC[C@H]1C(=O)N[C@@H](CO)C(=O)N[C@@H](CO)C(=O)N[C@H](C(=O)N[C@@H](CC(N)=O)C(=O)N[C@H](C(=O)NCC(=O)N[C@@H](CO)C(=O)N[C@@H](Cc1c[nH]cn1)C(=O)N[C@H](C(=O)N[C@@H](Cc1ccc(O)cc1)C(N)=O)[C@@H](C)O)C(C)C)[C@@H](C)O [Example 18] ({C20 diacid-γGlu}-KCNTATCATQRLAEFLRHSSPNFGAIPSSTNVGSHTY-NH2; disulfide 2-7) | 45 | 5.09 | –

Further compounds by falling IC50 ([2]; read-out: hCTR bind IC50), results first:

ThT pH 4.0 lag time (h) [1] [h] | IC50 ([2]; read-out: hCTR bind IC50) [nM] | SMILES | IC50 [2] [nM]
45 | 4.28 | CC[C@H](C)[C@H](NC(=O)[C@H](C)NC(=O)CNC(=O)[C@H](Cc1ccccc1)NC(=O)[C@H](CC(N)=O)NC(=O)[C@@H]1CCCN1C(=O)[C@H](CO)NC(=O)[C@H](CO)NC(=O)[C@H](Cc1c[nH]cn1)NC(=O)[C@H](CCCNC(=N)N)NC(=O)[C@H](CC(C)C)NC(=O)[C@H](Cc1ccccc1)NC(=O)[C@H](CCC(=O)O)NC(=O)[C@H](C)NC(=O)[C@H](CC(C)C)NC(=O)[C@H](CCCNC(=N)N)NC(=O)[C@H](CCC(N)=O)NC(=O)[C@@H](NC(=O)[C@H](C)NC(=O)[C@@H]1CSSC[C@H](NC(=O)[C@@H](N)CCCCNC(=O)CC[C@H](NC(=O)CCCCCCCCCCCCCCCCCCC(=O)O)C(=O)O)C(=O)N[C@@H](CC(N)=O)C(=O)N[C@@H]([C@@H](C)O)C(=O)N[C@@H](C)C(=O)N[C@@H]([C@@H](C)O)C(=O)N1)[C@@H](C)O)C(=O)N1CCC[C@H]1C(=O)N[C@@H](CO)C(=O)N[C@@H](CO)C(=O)N[C@H](C(=O)N[C@@H](CC(N)=O)C(=O)N[C@H](C(=O)NCC(=O)N[C@@H](Cc1c[nH]cn1)C(=O)N[C@@H](CCC(=O)O)C(=O)N[C@H](C(=O)N[C@@H](Cc1ccc(O)cc1)C(N)=O)[C@@H](C)O)C(C)C)[C@@H](C)O [Example 107] (H-K([γGlu-C20 diacid])CNTATCATQRLAEFLRHSSPNFGAIPSSTNVGHETY-NH2; disulfide 2-7 (inferred)) | –
30 | 3.27 | CC[C@H](C)[C@H](NC(=O)[C@H](C)NC(=O)CNC(=O)[C@H](Cc1ccccc1)NC(=O)[C@H](CC(N)=O)NC(=O)[C@@H]1CCCN1C(=O)[C@H](CO)NC(=O)[C@H](CO)NC(=O)[C@H](Cc1c[nH]cn1)NC(=O)[C@H](CCCNC(=N)N)NC(=O)[C@H](CC(C)C)NC(=O)[C@H](Cc1ccccc1)NC(=O)[C@H](CC(=O)O)NC(=O)[C@H](C)NC(=O)[C@H](CC(C)C)NC(=O)[C@H](CCCNC(=N)N)NC(=O)[C@H](CCC(N)=O)NC(=O)[C@@H](NC(=O)[C@H](C)NC(=O)[C@@H]1CSSC[C@H](NC(=O)[C@@H](N)CCCCNC(=O)CC[C@H](NC(=O)CCCCCCCCCCCCCCCCCCC(=O)O)C(=O)O)C(=O)N[C@@H](CC(N)=O)C(=O)N[C@@H]([C@@H](C)O)C(=O)N[C@@H](C)C(=O)N[C@@H]([C@@H](C)O)C(=O)N1)[C@@H](C)O)C(=O)N1CCC[C@H]1C(=O)N[C@@H](CO)C(=O)N[C@@H](CO)C(=O)N[C@H](C(=O)N[C@@H](CC(N)=O)C(=O)N[C@H](C(=O)NCC(=O)N1CCC[C@H]1C(=O)N[C@@H](CCC(=O)O)C(=O)N[C@H](C(=O)N[C@@H](Cc1ccc(O)cc1)C(N)=O)[C@@H](C)O)C(C)C)[C@@H](C)O [Example 123] (H-K([γGlu-C20 diacid])CNTATCATQRLADFLRHSSPNFGAIPSSTNVGPETY-NH2; disulfide 2-7; N-terminus assumed) | –
